In general, EC50 refers to the concentration that produces a half-maximal response.

Among the data in patent US20250263408A1 (Uniquest Pty Ltd, priority 2022, published 2025) are EC50 values, retold here.

Test [1] deals with T1, Ba/F3-Syk cells (Homo sapiens, UniProt P43405).
T1 construct: fused on or other part: Possible but unprinted fusion partner: TEL (ETV6), the usual partner for Ba/F3 lines transformed by Syk; Nothing on a partner is printed
As to the kind of experiment: Ba/F3 Proliferation Assay, Ba/F3-Syk cells (Resazurin). The class given is cell-based. The conditions noted are these: 48-hour incubation. A general note: Resazurin is reduced to fluorescent resorufin, in cell work by metabolically active cells.

For test [2], the system named is Ba/F3-WT (wild type) cells. The test can be described thus: Ba/F3 Proliferation Assay, Ba/F3-WT (wild type) cells with mIL-3 (Resazurin). In kind it is cell-based. Conditions: Ba/F3-WT cells +mIL-3, 48-hour incubation.

Regarding `CCn1ccc(-c2cc(O[C@H](C)[C@@H]3CNCCO3)c3nccnc3c2)c1` [Compound 8.14, 7-(1-ethyl-1H-pyrrol-3-yl)-5-[(1R)-1-[(2S)-morpholin-2-yl]ethoxy]quinoxaline], the EC50 in test [1] was 0.0083 µM; in test [2] (Mus musculus, BaF3, 48 h), 0.435 µM.
As for `CC(C)n1ccc(-c2cc(OC[C@@H]3CNCC4(CC4)O3)c3nccnc3c2)c1` [Compound 8.2, 5-{[(5S)-4-oxa-7-azaspiro[2.5]octan-5-yl]methoxy}-7-[1-(propan-2-yl)-1H-pyrrol-3-yl]quinoxaline], the EC50 is 0.0221 µM in test [1] and 0.614 µM in test [2] (Mus musculus, BaF3, 48 h).
Regarding `CC[C@H](C)n1cc(-c2cc3ncccc3c(OC[C@@H]3CNCC(C)(C)O3)n2)cn1` [Compound 6.35, 7-{1-[(2S)-butan-2-yl]-1H-pyrazol-4-yl}-5-{[(2S)-6,6-dimethylmorpholin-2-yl]methoxy}-1,6-naphthyridine], the 50% effective concentration (EC50) in test [1] amounted to 0.0236 µM; in test [2] (Mus musculus, BaF3, 48 h) it was 2.3 µM.
Take `CC(C)n1ccc(-c2cc(OC[C@@H]3CNCC(C)(C)O3)c3cccnc3c2)c1` [Compound 7.4, 5-{[(2S)-6,6-dimethylmorpholin-2-yl]methoxy}-7-[1-(propan-2-yl)-1H-pyrrol-3-yl]quinoline]: the EC50 in test [1] was 0.0297 µM; in test [2] (Mus musculus, BaF3, 48 h), 2.69 µM.
With `c1cnc2cc(-c3cnn4c3CCCC4)nc(OC[C@@H]3CNCCO3)c2c1` [Compound 10.4, 5-{[(2S)-morpholin-2-yl]methoxy}-7-{4H,5H,6H,7H-pyrazolo[1,5-a]pyridin-3-yl}-1,6-naphthyridine], the EC50 in test [1] is 0.663 µM; in test [2] (Mus musculus, BaF3, 48 h) it was 8.09 µM.
`CC(C)(C)n1cc(-c2cc3ncccc3c(OC[C@H]3OC[C@@H]4C[C@H]3N4)n2)cn1` (relative stereo) [Compound 2.97, 7-(1-tert-butyl-1H-pyrazol-4-yl)-5-{[rel-(1R,2S,5S)-3-oxa-6-azabicyclo[3.1.1]heptan-2-yl]methoxy}-1,6-naphthyridine]: the figures for the EC50 in test [1] and in test [2] were 0.347 µM and 4.24 µM, respectively.
Turning to `CC(C)n1cc(-c2cc3ncccc3c(OC[C@@H]3CNCC4(CC4)O3)n2)cn1` [Compound 2.62, 5-{[(5S)-4-oxa-7-azaspiro[2.5]octan-5-yl]methoxy}-7-[1-(propan-2-yl)-1H-pyrazol-4-yl]-1,6-naphthyridine], the EC50 amounted to 0.0314 µM in test [1] and 1.29 µM in test [2] (Mus musculus, BaF3, 48 h).
On to `C[C@@H](Oc1cc(-c2cnn(C(C)(C)C)c2)cc2ncccc12)[C@@H]1CNCCO1` [Compound 14.2, 7-(1-tert-butyl-1H-pyrazol-4-yl)-5-[(1R)-1-[(2S)-morpholin-2-yl]ethoxy]quinoline], for which the concentration for a half-maximal effect (EC50) in test [1] stood at 0.0818 µM; in test [2] (Mus musculus, BaF3, 48 h), 1.88 µM.
Regarding `C[C@@H](Oc1nc(-c2ccn(C)c2)cc2ncccc12)[C@@H]1CNCC(C)(C)O1` [Compound 2.65, 5-[(1R)-1-[(2S)-6,6-dimethylmorpholin-2-yl]ethoxy]-7-(1-methyl-1H-pyrrol-3-yl)-1,6-naphthyridine], the EC50 came to 0.0117 µM in test [1] and 2.54 µM in test [2] (Mus musculus, BaF3, 48 h).
`CC(C)n1cc(-c2cc3ncccc3c(OC[C@@H]3CNCC(C)(C)CO3)n2)cn1` [Compound 10.12, 5-{[(2S)-6,6-dimethyl-1,4-oxazepan-2-yl]methoxy}-7-[1-(propan-2-yl)-1H-pyrazol-4-yl]-1,6-naphthyridine]: the EC50 in test [1] was 0.0861 µM; in test [2] (Mus musculus, BaF3, 48 h), 1.92 µM.
In the case of `C[C@@H](Oc1cc(-c2ccn(C)c2)cc2ncccc12)[C@@H]1CNCCO1` [Compound 11.10, 7-(1-methyl-1H-pyrrol-3-yl)-5-[(1R)-1-[(2S)-morpholin-2-yl]ethoxy]quinoline], the EC50 stood at 0.121 µM in test [1] and 1.7 µM in test [2] (Mus musculus, BaF3, 48 h).
In the same order, the values of `C[C@@H](Oc1cc(-c2ccn(CC(F)F)c2)cc2nccnc12)[C@@H]1CNCCO1` [Compound 8.15, 7-[1-(2,2-difluoroethyl)-1H-pyrrol-3-yl]-5-[(1R)-1-[(2S)-morpholin-2-yl]ethoxy]quinoxaline] are 0.0089 µM and 0.358 µM.
For the compound `FC1(F)CC1n1ccc(-c2cc3ncccc3c(OC[C@@H]3CNCCO3)n2)c1` (stereo partly drawn) [Compound 6.17, 7-[1-(2,2-difluorocyclopropyl)-1H-pyrrol-3-yl]-5-{[(2S)-morpholin-2-yl]methoxy}-1,6-naphthyridine], the EC50 worked out at 0.0799 µM in test [1] and 2.4 µM in test [2] (Mus musculus, BaF3, 48 h).
`CCc1ccc(-c2cc3ncccc3c(OC[C@@H]3CNCCO3)n2)s1` [Compound 2.36, 7-(5-ethylthiophen-2-yl)-5-{[(2S)-morpholin-2-yl]methoxy}-1,6-naphthyridine]: the EC50 in test [1] was determined as 0.279 µM; in test [2] (Mus musculus, BaF3, 48 h) it was 2.05 µM.
In the same order, the values of `C[C@@H]1O[C@H](COc2nc(-c3cnn(C(C)(C)C)c3)cc3ncccc23)CN[C@@H]1C` (relative stereo) [Compound 2.81, 7-(1-tert-butyl-1H-pyrazol-4-yl)-5-{[rel-(2S,5R,6S)-5,6-dimethylmorpholin-2-yl]methoxy}-1,6-naphthyridine] are 0.0732 µM and 2.07 µM.
For `CC(C)n1ccc(-c2cc(O[C@H](C)[C@@H]3CNCCO3)c3nccnc3c2)c1` [Compound 8.13], the EC50 in test [1] worked out at 0.0073 µM; in test [2], 0.371 µM.
Consider `C[C@H]1CNC[C@@H](COc2nc(-c3ccn(C)c3)cc3ncccc23)O1` [Compound 2.75, 7-(1-methyl-1H-pyrrol-3-yl)-5-{[(2,6S)-6-methylmorpholin-2-yl]methoxy}-1,6-naphthyridine], for which the EC50 in test [1] turned out to be 0.0678 µM; in test [2] (Mus musculus, BaF3, 48 h), 3.92 µM.
As for `CC1(C)CNC[C@@H](COc2nc(-c3cnn(C(C)(C)C)c3)cc3ncccc23)OC1` [Compound 10.11, 7-(1-tert-butyl-1H-pyrazol-4-yl)-5-{[(2S)-6,6-dimethyl-1,4-oxazepan-2-yl]methoxy}-1,6-naphthyridine], the EC50 in test [1] was found to be 0.0808 µM; in test [2] (Mus musculus, BaF3, 48 h), 4.14 µM.
Take `C[C@@H]1CNC[C@@H](COc2nc(-c3ccn(C)c3)cc3ncccc23)O1` [Compound 2.77, 7-(1-methyl-1H-pyrrol-3-yl)-5-{[(2S,6R)-6-methylmorpholin-2-yl]methoxy}-1,6-naphthyridine]: the EC50 in test [1] was 0.0427 µM; in test [2] (Mus musculus, BaF3, 48 h), 5.32 µM.
In the same order, the values of `C[C@@H](Oc1cc(-c2cnn(C)c2)cc2ncccc12)[C@@H]1CNCC(C)(C)O1` [Compound 11.4, 5-[(1R)-1-[(2S)-6,6-dimethylmorpholin-2-yl]ethoxy]-7-(1-methyl-1H-pyrazol-4-yl)quinoline] are 0.0697 µM and 0.74 µM.
Turning to `CC1(C)CNC[C@@H](COc2nc(-c3ccn(C4CC4(F)F)c3)cc3ncccc23)O1` (stereo partly drawn) [Compound 6.18, 7-[1-(2,2-difluorocyclopropyl)-1H-pyrrol-3-yl]-5-{[(2S)-6,6-dimethylmorpholin-2-yl]methoxy}-1,6-naphthyridine], the EC50 is 0.0362 µM in test [1] and 3.29 µM in test [2] (Mus musculus, BaF3, 48 h).
Turning to `Cn1cc(-c2cc3ncccc3c(OC[C@H]3CN[C@@H]4CCC[C@@H]4O3)n2)cn1` [Compound 2.72, 5-{[(2R,4aR,7aS)-octahydrocyclopenta[b][1,4]oxazin-2-yl]methoxy}-7-(1-methyl-1H-pyrazol-4-yl)-1,6-naphthyridine], the EC50 in test [1] was 0.266 µM; in test [2] (Mus musculus, BaF3, 48 h) it was 1.9 µM.
For `CC[C@@H]1CNC[C@@H](COc2nc(-c3cnn(C(C)(C)C)c3)cc3ncccc23)O1` [Compound 2.93, 7-(1-tert-butyl-1H-pyrazol-4-yl)-5-{[(2S,6R)-6-ethylmorpholin-2-yl]methoxy}-1,6-naphthyridine], in that order: 0.0277 µM and 1.24 µM.
For `Cn1ccc(-c2cc(OC[C@@H]3CNCCO3)c3cncnc3c2)c1` [Compound 4.3, 7-(1-methyl-1H-pyrrol-3-yl)-5-{[(2S)-morpholin-2-yl]methoxy} quinazoline], the EC50 in test [1] was determined as 0.586 µM; in test [2] (Mus musculus, BaF3, 48 h), 5.01 µM.
On to `F/C=C\n1cc(-c2cc3ncccc3c(OC[C@@H]3CNCCO3)n2)cn1` [Compound 6.7, 7-{1-[(1Z)-2-fluoroethenyl]-1H-pyrazol-4-yl}-5-{[(2S)-morpholin-2-yl]methoxy}-1,6-naphthyridine], for which the EC50 in test [1] worked out at 0.113 µM; in test [2] (Mus musculus, BaF3, 48 h) it was 3.4 µM.
Regarding `CC(F)(F)Cn1ccc(-c2cc3ncccc3c(OC[C@@H]3CNCCO3)n2)c1` [Compound 6.43, 7-[1-(2,2-difluoropropyl)-1H-pyrrol-3-yl]-5-{[(2S)-morpholin-2-yl]methoxy}-1,6-naphthyridine], the EC50 is 0.0149 µM in test [1] and over 1 µM in test [2] (Mus musculus, BaF3, 48 h).
On to `CCn1ccc(-c2cc3ncccc3c(OC[C@@H]3CNCCO3)n2)c1` [Compound 6.1, 7-(1-ethyl-1H-pyrrol-3-yl)-5-{[(2S)-morpholin-2-yl]methoxy}-1,6-naphthyridine], for which the EC50 was found to be 0.0388 µM in test [1] and 2.66 µM in test [2] (Mus musculus, BaF3, 48 h).
For the compound `CC[C@H]1CNC[C@@H](COc2nc(-c3cnn(C(C)(C)C)c3)cc3ncccc23)O1` [Compound 2.92, 7-(1-tert-butyl-1H-pyrazol-4-yl)-5-{[(2S,6S)-6-ethylmorpholin-2-yl]methoxy}-1,6-naphthyridine], the EC50 in test [1] worked out at 0.029 µM; in test [2] (Mus musculus, BaF3, 48 h), 0.599 µM.
As to `c1cnc2cc(-c3ccn[nH]3)nc(OC[C@@H]3CNCCO3)c2c1` [Compound 2.28, 5-{[(2S)-morpholin-2-yl]methoxy}-7-(1H-pyrazol-5-yl)-1,6-naphthyridine], the half-maximal effective concentration (EC50) in test [1] was 0.734 µM; in test [2] (Mus musculus, BaF3, 48 h), over 10 µM.
In the case of `CC1(C)CCO[C@H](COc2nc(-c3cnn(C(C)(C)C)c3)cc3ncccc23)CN1` [Compound 13.4, 7-(1-tert-butyl-1H-pyrazol-4-yl)-5-{[(2S)-5,5-dimethyl-1,4-oxazepan-2-yl]methoxy}-1,6-naphthyridine], the EC50 came out at 0.214 µM in test [1] and 5.75 µM in test [2] (Mus musculus, BaF3, 48 h).
Consider `CC(C)n1cc(-c2cc3ncccc3c(OC[C@@H]3CNCC4(CCC4)O3)n2)cn1` [Compound 2.56, 5-{[(6S)-5-oxa-8-azaspiro[3.5]nonan-6-yl]methoxy}-7-[1-(propan-2-yl)-1H-pyrazol-4-yl]-1,6-naphthyridine], for which the EC50 in test [1] was determined as 0.0329 µM; in test [2] (Mus musculus, BaF3, 48 h), 1.46 µM.
